From US12065428B2, “Anti-viral compounds” (Aligos Therapeutics, Inc., priority 2021, dated 2024)
Read-outs that look alike come from different tables or passages of the source.

How the values were obtained:
human cathepsin L = biological target: T1, human cathepsin L (Homo sapiens, UniProt P07711); test: Cathepsin L assay (Z-FR-AMC fluorescence); type: biochemical; details: 10 pM human cathepsin L, 30 mins preincubation; class symbols
T1 construct: purchased R&D Systems
Description: For the cathepsin L assay, 10 pM of human cathepsin L (R&D Systems; Minneapolis, MN) was preincubated for 30 mins with test compounds. Reactions were initiated by the addition of a peptide substrate Z-FR-AMC (final concentration 2 μM, Anaspec; Fremont, CA). Fluorescence was measured at 2-minute intervals for 30 mins using a 355/460 excitation/emission filter module on an Envision plate reader (Perkin Elmer; Waltham, MA). The IC50 values were calculated for each assay by fitting the curves using a four-parameter equation in GraphPad Prism.

SARS-Cov-2 3CLpro = biological target: T2, SARS-Cov-2 3CLpro (Severe acute respiratory syndrome coronavirus 2, UniProt P0DTD1); test: SARS-Cov-2 3CLpro and HRV3C duplex assay (SAMDI-MS): 3CLpro; type: biochemical
T2 construct: SARS-Cov-2 3CLpro and HRV3C Duplex Assay

[1] = Cytotoxicity plates without OC43 virus in HeLa cells; type: cell-based; details: human, HeLa cells (uninfected), class symbols
Description: The human beta-coronavirus OC43 was purchased from ATCC (Manassas, VA) and propagated using HCT-8 human colorectal epithelial cells (ATCC). HeLa human cervical epithelial cells (ATCC) were used as susceptible host cell lines and were cultured using EMEM media, supplemented with 10% fetal bovine serum (FBS), 1% (v/v) penicillin/streptomycin (P/S), 1% (v/v) HEPES and 1% (v/v) cellgro Glutagro™ supplement (all Corning, Manassas, VA) at 37° C. For the OC43 antiviral assay, 1.5×10^4 HeLa cells per well were plated in 100 μL complete media in white 96-well plates with clear bottoms at 37° C. for up to 24 h to facilitate attachment and allow cells to recover from seeding stresses. Next day, the cell culture medium was removed. Serially diluted compounds in 100 μL assay media (EMEM, 2% FBS, 1% P/S, 1% cellgro Glutagro™ supplement, 1% HEPES) were added to the cells and incubated for 4H at 37° C. in a humidified 5% CO2 incubator. 100 μL of OC43 virus stock was diluted to a concentration known to produce optimal cytopathic effect, inducing 80-90% reduction in cell viability. 96-well plates were incubated for 6 (HeLa) days at 33° C.; each plate contains uninfected control wells as well as virus-infected wells that were not treated with compound. Cytotoxicity plates without the addition of OC43 virus were carried out in parallel. At the end of the incubation period, 100 μL cell culture supernatant was replaced with 100 μL cell-titer-glo reagent (Promega, Madison, WI) and incubated for at least 10 min at rt prior to measuring luminescence. Luminescence was measured on a Perkin Elmer (Waltham, MA) Envision plate reader. Antiviral % inhibition was calculated as follows: [(Compound treated cells infected sample)−(no compound infected control)]/[(Uninfected control)−(no compound infected control)]*100; Using GraphPad (San Diego, CA) prism software version 8.3.1, the antiviral dose-response plot was generated as a sigmoidal fit, log(inhibitor) vs response-variable slope (four parameters) model and the EC50 was calculated which is the predicted compound concentration corresponding to a 50% inhibition of the viral cytopathic effect.

[2] = tested on: SARS-CoV-2-GHB-03021/2020; test: microbe, parasite or virus in culture; type: cell-based
[3] = tested on: human beta-coronavirus OC43; test: OC43 coronavirus assay in HeLa cells (cytopathic effect, cell-titer-glo); type: cell-based
HRV3C = biological target: T3, HRV3C (Human rhinovirus 14, UniProt P03303); test: biochemical
T3 construct: SARS-Cov-2 3CLpro and HRV3C Duplex Assay

[4] = 3CLpro, duplex assay, 30 mins preincubation, class symbols, read-out: SARS-Cov-2 IC50
[5] = Severe acute respiratory syndrome coronavirus 2, Vero C1008, 96 h, read-out: VeroE6 + CP (EC50)
[6] = Betacoronavirus 1, 144 h, OC43 in HeLa cells, 6 days at 33° C., class symbols, read-out: EC50
[7] = Severe acute respiratory syndrome coronavirus 2, Vero C1008, 96 h; read-out: VeroE6 + CP (EC50)
[8] = HRV3C, duplex assay, 30 mins preincubation, class symbols, read-out: HRV IC50

T3 sequence (P03303 1538-1719): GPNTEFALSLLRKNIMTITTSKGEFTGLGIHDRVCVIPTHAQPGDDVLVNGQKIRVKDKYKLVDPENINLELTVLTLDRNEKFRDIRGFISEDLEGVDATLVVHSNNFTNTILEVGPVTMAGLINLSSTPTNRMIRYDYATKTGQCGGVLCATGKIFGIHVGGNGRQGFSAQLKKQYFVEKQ
T1 sequence (P07711 114-333): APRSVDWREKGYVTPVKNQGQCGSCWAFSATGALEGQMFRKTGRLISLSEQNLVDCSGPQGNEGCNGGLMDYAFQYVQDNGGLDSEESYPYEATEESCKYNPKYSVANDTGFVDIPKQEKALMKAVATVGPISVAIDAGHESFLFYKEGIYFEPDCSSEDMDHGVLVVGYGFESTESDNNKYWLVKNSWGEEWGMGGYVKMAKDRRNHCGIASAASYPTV

O=C(NC1CC1)C(=O)[C@H](C[C@@H]1CCNC1=O)NC(=O)[C@@H]1CC2(CCN1C(=O)[C@H]1C[C@@]13CCCc1ccccc13)CC2 (relative stereo) [Compound 34A, (S)—N—((S)-4-(cyclopropylamino)-3,4-dioxo-1-((S)-2-oxopyrrolidin-3-yl)butan-2-yl)-6-((1S*,2S*)-3′,4′-dihydro-2′H-spiro[cyclopropane-1,1′-naphthalene]-2-carbonyl)-6-azaspiro[2.5]octane-5-carboxamide]
IC50 (human cathepsin L): 1000 to 10000 nM
IC50 (SARS-Cov-2 3CLpro; [4]): 200 to 2000 nM
CC50 at 6 days [1]: ≥ 100000 nM
EC50 [2, 5]: 1000 to 10000 nM
EC50 [3, 6]: 100 to 1000 nM

O=C(NC1CC1)C(=O)[C@H](C[C@@H]1CCNC1=O)NC(=O)[C@@H]1CC2(CCN1C(=O)[C@@H]1C[C@]13CCCc1ccccc13)CC2 (relative stereo) [Compound 34B]
IC50 (human cathepsin L): 1000 to 10000 nM
IC50 (SARS-Cov-2 3CLpro; [4]): 20 to 200 nM
CC50 at 6 days [1]: 10000 to 100000 nM
EC50 [2, 7]: < 1000 nM
EC50 [3, 6]: 100 to 1000 nM

Cn1ncc2c1CC(C(=O)N1CCC3(CC3)C[C@H]1C(=O)NC(C[C@@H]1CCNC1=O)C(=O)C(=O)NC1CC1)CC2 (stereo partly drawn) [Compound 14, (5S)—N-(4-(cyclopropylamino)-3,4-dioxo-1-((S)-2-oxopyrrolidin-3-yl)butan-2-yl)-6-(1-methyl-4,5,6,7-tetrahydro-1H-indazole-6-carbonyl)-6-azaspiro[2.5]octane-5-carboxamide]
IC50 (human cathepsin L): ≥ 10000 nM
IC50 (SARS-Cov-2 3CLpro; [4]): 20 to 200 nM
CC50 at 6 days [1]: ≥ 100000 nM
EC50 [2, 7]: 10000 to 100000 nM
EC50 ([3]; Betacoronavirus 1, OC43, HeLa): > 10000 nM
IC50 (HRV3C; [8]): 200 to 2000 nM

Cc1ccc2cc(C(=O)N3CCC4(CC4)C[C@H]3C(=O)N[C@@H](C[C@@H]3CCNC3=O)C(=O)C(=O)NC3CC3)sc2c1 [Compound 15, (3S)—N-cyclopropyl-3-{[(5S)-6-(6-methyl-1-benzothiophene-2-carbonyl)-6-azaspiro[2.5]octan-5-yl]formamido}-2-oxo-4-[(3S)-2-oxopyrrolidin-3-yl]butanamide]
IC50 (human cathepsin L): 1000 to 10000 nM
IC50 (SARS-Cov-2 3CLpro; [4]): < 20 nM
CC50 at 6 days [1]: ≥ 100000 nM
EC50 [2, 7]: < 1000 nM
EC50 [3, 6]: 100 to 1000 nM
IC50 (HRV3C; [8]): 2000 to 20000 nM

O=C(NC1CC1)C(=O)[C@H](C[C@@H]1CCNC1=O)NC(=O)[C@@H]1CC2(CCN1C(=O)c1ccc3c(c1)OCO3)CC2 [Compound 16, (3S)-3-{[(5S)-6-(2H-1,3-benzodioxole-5-carbonyl)-6-azaspiro[2.5]octan-5-yl]formamido}-N-cyclopropyl-2-oxo-4-[(3S)-2-oxopyrrolidin-3-yl]butanamide]
IC50 (human cathepsin L): ≥ 10000 nM
IC50 (SARS-Cov-2 3CLpro): 20 to 200 nM
CC50 at 6 days [1]: ≥ 100000 nM
EC50 [2, 7]: 1000 to 10000 nM
EC50 [3, 6]: 1000 to 10000 nM
IC50 (HRV3C; [8]): 2000 to 20000 nM

Cn1nc(C(=O)N2CCC3(CC3)C[C@H]2C(=O)NC(C[C@@H]2CCNC2=O)C(=O)C(=O)NC2CC2)cc1-c1ccccc1 (stereo partly drawn) [Compound 17, (5S)—N-(4-(cyclopropylamino)-3,4-dioxo-1-((S)-2-oxopyrrolidin-3-yl)butan-2-yl)-6-(1-methyl-5-phenyl-1H-pyrazole-3-carbonyl)-6-azaspiro[2.5]octane-5-carboxamide]
IC50 (human cathepsin L): ≥ 10000 nM
IC50 (SARS-Cov-2 3CLpro; [4]): 200 to 2000 nM
CC50 at 6 days [1]: ≥ 100000 nM
EC50 [2, 7]: 1000 to 10000 nM
EC50 [3, 6]: 1000 to 10000 nM
IC50 (HRV3C; [8]): 2000 to 20000 nM

O=C(NC1CC1)C(=O)C(C[C@@H]1CCNC1=O)NC(=O)[C@@H]1CC2(CCN1C(=O)c1noc(-c3ccccc3)n1)CC2 (stereo partly drawn) [Compound 18, N-cyclopropyl-2-oxo-4-[(3S)-2-oxopyrrolidin-3-yl]-3-{[(5S)-6-(5-phenyl-1,2,4-oxadiazole-3-carbonyl)-6-azaspiro[2.5]octan-5-yl]formamido}butanamide]
IC50 (human cathepsin L): ≥ 10000 nM
IC50 (SARS-Cov-2 3CLpro; [4]): 20 to 200 nM
CC50 at 6 days [1]: ≥ 100000 nM
EC50 [2, 7]: 1000 to 10000 nM
EC50 [3, 6]: 1000 to 10000 nM
IC50 (HRV3C; [8]): 200 to 2000 nM

O=C(NC1CC1)C(=O)C(C[C@@H]1CCNC1=O)NC(=O)[C@@H]1CC2(CCN1C(=O)c1cc3cccc4c3n1CCC4)CC2 (stereo partly drawn) [Compound 19, 3-{[(5S)-6-{1-azatricyclo[6.3.1.0^{4,12}]dodeca-2,4(12),5,7-tetraene-2-carbonyl}-6-azaspiro[2.5]octan-5-yl]formamido}-N-cyclopropyl-2-oxo-4-[(3S)-2-oxopyrrolidin-3-yl]butanamide]
IC50 (human cathepsin L): 1000 to 10000 nM
IC50 (SARS-Cov-2 3CLpro; [4]): < 20 nM
CC50 at 6 days [1]: ≥ 100000 nM
EC50 [2, 7]: < 1000 nM
EC50 [3, 6]: 1000 to 10000 nM
IC50 (HRV3C; [8]): 200 to 2000 nM

O=C(NC1CC1)C(=O)[C@H](C[C@@H]1CCNC1=O)NC(=O)[C@@H]1CC2(CCN1C(=O)c1cn3ccccc3n1)CC2 [Compound 20, (3S)—N-cyclopropyl-3-{[(5S)-6-{imidazo[1,2-a]pyridine-2-carbonyl}-6-azaspiro[2.5]octan-5-yl]formamido}-2-oxo-4-[(3S)-2-oxopyrrolidin-3-yl]butanamide]
IC50 (human cathepsin L): ≥ 10000 nM
IC50 (SARS-Cov-2 3CLpro; [4]): 200 to 2000 nM
CC50 at 6 days [1]: ≥ 100000 nM
EC50 [2, 7]: > 50000 nM
EC50 ([3]; Betacoronavirus 1, OC43, HeLa): > 10000 nM
IC50 (HRV3C; read-out: HRV IC50): > 10000 nM

O=C(NC1CC1)C(=O)[C@H](C[C@@H]1CCNC1=O)NC(=O)[C@@H]1CC2(CCN1C(=O)c1ccc3ccccc3c1)CC2 [Compound 21, (S)-6-(2-naphthoyl)-N—((S)-4-(cyclopropylamino)-3,4-dioxo-1-((S)-2-oxopyrrolidin-3-yl)butan-2-yl)-6-azaspiro[2.5]octane-5-carboxamide]
IC50 (human cathepsin L): 1000 to 10000 nM
IC50 (SARS-Cov-2 3CLpro; [4]): < 20 nM
CC50 at 6 days [1]: ≥ 100000 nM
EC50 [2, 7]: < 1000 nM
EC50 [3, 6]: 100 to 1000 nM
IC50 (HRV3C; [8]): 200 to 2000 nM

O=C(NC1CC1)C(=O)C(C[C@@H]1CCNC1=O)NC(=O)[C@@H]1CC2(CCN1C(=O)c1cc3ccccc3n1-c1ccccc1)CC2 (stereo partly drawn) [Compound 22, N-cyclopropyl-2-oxo-4-[(3S)-2-oxopyrrolidin-3-yl]-3-{[(5S)-6-(1-phenylindole-2-carbonyl)-6-azaspiro[2.5]octan-5-yl]formamido}butanamide]
IC50 (human cathepsin L): ≥ 10000 nM
IC50 (SARS-Cov-2 3CLpro; [4]): < 20 nM
CC50 at 6 days [1]: 10000 to 100000 nM
EC50 [2, 5]: < 1000 nM
EC50 [3, 6]: 100 to 1000 nM
IC50 (HRV3C): 200 to 2000 nM

O=C(NC1CC1)C(=O)C(C[C@@H]1CCNC1=O)NC(=O)[C@@H]1CC2(CCN1C(=O)c1nc3ccccc3s1)CC2 (stereo partly drawn) [Compound 23, 3-{[(5S)-6-(1,3-benzothiazole-2-carbonyl)-6-azaspiro[2.5]octan-5-yl]formamido}-N-cyclopropyl-2-oxo-4-[(3S)-2-oxopyrrolidin-3-yl]butanamide]
IC50 (human cathepsin L): ≥ 10000 nM
IC50 (SARS-Cov-2 3CLpro; [4]): 20 to 200 nM
CC50 at 6 days [1]: ≥ 100000 nM
EC50 [2, 7]: 1000 to 10000 nM
EC50 [3, 6]: 100 to 1000 nM
IC50 (HRV3C; [8]): 2000 to 20000 nM

O=C(NC1CC1)C(=O)C(C[C@@H]1CCNC1=O)NC(=O)[C@@H]1CC2(CCN1C(=O)c1cnn(-c3ccccc3)n1)CC2 (stereo partly shown) [Compound 24]
IC50 (human cathepsin L): ≥ 10000 nM
IC50 (SARS-Cov-2 3CLpro; [4]): 200 to 2000 nM
CC50 at 6 days [1]: ≥ 100000 nM
EC50 [2, 7]: 1000 to 10000 nM
EC50 [3, 6]: 1000 to 10000 nM
IC50 (HRV3C; [8]): 200 to 2000 nM

O=C(NC1CC1)C(=O)C(C[C@@H]1CCNC1=O)NC(=O)[C@@H]1[C@@H]2C[C@@H](CC23CC3)N1C(=O)c1cc2ccccc2s1 (stereo partly drawn) [Compound 25, 3-[(1R,4S,6S)-5-(1-benzothiophene-2-carbonyl)-5-azaspiro[bicyclo[2.2.1]heptane-2,1′-cyclopropan]-6-ylformamido]-N-cyclopropyl-2-oxo-4-[(3S)-2-oxopyrrolidin-3-yl]butanamide]
IC50 (human cathepsin L): ≥ 10000 nM
IC50 (SARS-Cov-2 3CLpro; [4]): 20 to 200 nM
CC50 at 6 days [1]: ≥ 100000 nM
EC50 [2, 7]: 1000 to 10000 nM
EC50 [3, 6]: 1000 to 10000 nM
IC50 (HRV3C; [8]): 200 to 2000 nM
